Experimental data taken from paper PMC9928118, “Funneling modulatory peptide design with generative models: Discovery and characterization of disruptors of calcineurin protein-protein interactions” (PLOS Computational Biology, 2023).

Tested on: GST-tagged Cn
Test: PEPperPRINT peptide microarray binding assay with GST-tagged Cn
How it was run: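 Qualitative binding: peptides printed on a PEPperPRINT microarray were incubated overnight at 4 °C with 1 mg/ml GST-tagged Cn, then detected with Alexa-Fluor 647 anti-GST antibody. Log fluorescence was baseline-corrected, averaged over duplicate spots, Z-normalized and averaged across five repeats.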

[1] = max over the spots listed under Location on chip
[2] = mean over the spots listed under Location on chip
[3] = GST-tagged Cn, max over the chip spots listed under Location on chip
[4] = GST-tagged Cn, mean over the chip spots listed under Location on chip
[5] = max over the chip locations listed for the peptide (two spots)
[6] = mean over the chip locations listed for the peptide (two spots)
[7] = GST-tagged Cn, max over the spots named in Location on chip
[8] = GST-tagged Cn, mean over the spots named in Location on chip
[9] = GST-tagged Cn, max over the chip locations
[10] = GST-tagged Cn, mean over the chip locations
[11] = GST-tagged Cn, max over the spots on the chip (two locations)
[12] = GST-tagged Cn, mean over the spots on the chip (two locations)

RNPGTAPLTLKGHKKQ [SeqRBMlowT_6124]
Chip Fluorescence (max) [1]: 2.7668 | Chip Fluorescence (mean) [2]: 0.4787

LKDEIPEVRLNIISAL [SeqRBMlowT_1072]
Chip Fluorescence (max) [1]: 2.998 | Chip Fluorescence (mean) [2]: 0.7654

TFWTNPQYRIKLEEAD [SeqRBMlowT_241]
Chip Fluorescence (max) [1]: 3.006 | Chip Fluorescence (mean) [2]: 0.9242

VPDIGHMALHHDQIQP [Seqrandom_9983]
Chip Fluorescence (max) [3]: 0.5967 | Chip Fluorescence (mean) [4]: -0.4753

SNLACNDRHPNNEDAK [Seqshuffled_9450]
Chip Fluorescence (max) [5]: 5.333 | Chip Fluorescence (mean) [6]: 1.133

ASVSNPEITVTSAETE [SeqRBM_9489]
Chip Fluorescence (max) [5]: 15.1807 | Chip Fluorescence (mean) [6]: 1.275

RAYINPFMQFIDGGRR [SeqRBMlowT_1520]
Chip Fluorescence (max) [7]: 1.802 | Chip Fluorescence (mean) [8]: -0.3387

KAYINPFMQFIDGGRR [SeqRBMlowT_549]
Chip Fluorescence (max) [1]: 3.298 | Chip Fluorescence (mean) [2]: 1.4015

RNPGSPVLELEGHSAS [SeqRBMlowT_6392]
Chip Fluorescence (max) [9]: -0.1475 | Chip Fluorescence (mean) [10]: -0.4043

STSGTFPQTESSHKKQ [SeqRBMlowT_5831]
Chip Fluorescence (max) [7]: 1.58 | Chip Fluorescence (mean) [8]: 0.09302

LAFALPAFSFAAMKSA [SeqRBM_4599]
Chip Fluorescence (max) [9]: -0.5301 | Chip Fluorescence (mean) [10]: -2.0266

RAYINPHMFFKFDGHK [SeqRBM_1639]
Chip Fluorescence (max) [3]: 0.9031 | Chip Fluorescence (mean) [4]: 0.1441

SFWANPQFIVSLEEPD [SeqRBMlowT_610]
Chip Fluorescence (max) [3]: 0.3721 | Chip Fluorescence (mean) [4]: -0.5491

TFWTNPQFRIKVEDPD [SeqRBMlowT_6818]
Chip Fluorescence (max) [11]: 1.08 | Chip Fluorescence (mean) [12]: -0.755

NDHNTNDWSFELGQTV [Seqshuffled_9000]
Chip Fluorescence (max) [5]: 3.477 | Chip Fluorescence (mean) [6]: 1.051

YRDSWVTACQKIQSKI [Seqrandom_9988]
Chip Fluorescence (max) [1]: 3.109 | Chip Fluorescence (mean) [2]: 0.4888

PFEKNDIQQIHLEEHP [Seqshuffled_9861]
Chip Fluorescence (max) [7]: 1.396 | Chip Fluorescence (mean) [8]: 0.78

RQPGTALLTLRGHKKQ [SeqRBMlowT_5805]
Chip Fluorescence (max) [7]: 1.524 | Chip Fluorescence (mean) [8]: 0.2674

ADEAGVQIVITVTELP [SeqRBMlowT_1446]
Chip Fluorescence (max) [5]: 3.577 | Chip Fluorescence (mean) [6]: 1.112

QRFFCVRYDVNPCINW [Seqrandom_9944]
Chip Fluorescence (max) [5]: 3.709 | Chip Fluorescence (mean) [6]: 0.2678

VVMHKMPKTGGWWHCP [Seqrandom_9963]
Chip Fluorescence (max) [1]: 2.722 | Chip Fluorescence (mean) [2]: 1.008

VETIRPGVVTEPMEAG [SeqRBM_4600]
Chip Fluorescence (max) [1]: 3.238 | Chip Fluorescence (mean) [2]: 1.278

KRMEPIAIIITDTEIS [SeqAKAP79_Pan_troglodytes]
Chip Fluorescence (max) [5]: 24.574 | Chip Fluorescence (mean) [6]: 3.689

GASMCPAMSWQDCGQR [SeqSFB3_Iconisemion_striatum]
Chip Fluorescence (max) [7]: 1.507 | Chip Fluorescence (mean) [8]: 0.3571

RAYINPFMQFNDGGSR [SeqRBM_9542]
Chip Fluorescence (max) [11]: 1.138 | Chip Fluorescence (mean) [12]: 0.2992

PDESTPEITITPAELP [SeqRBMlowT_5714]
Chip Fluorescence (max) [7]: 1.719 | Chip Fluorescence (mean) [8]: -0.09544

RQPGQALLELKGHAGA [SeqYPL247C_Erysiphe_pulchra]
Chip Fluorescence (max) [5]: 4.952 | Chip Fluorescence (mean) [6]: 0.4575

TFWTNPQFRIKLEEVD [SeqRBMlowT_2987]
Chip Fluorescence (max) [5]: 3.672 | Chip Fluorescence (mean) [6]: 2.469

GSSSSPPVDLKIPQVR [SeqRBMlowT_8820]
Chip Fluorescence (max) [11]: 1.178 | Chip Fluorescence (mean) [12]: 0.2864

SFWTNPQFRVKLEEVD [SeqRBMlowT_8566]
Chip Fluorescence (max) [11]: 1.129 | Chip Fluorescence (mean) [12]: 0.3513

PSLYENALGMEAFTIS [SeqRBMlowT_4846]
Chip Fluorescence (max) [7]: 1.442 | Chip Fluorescence (mean) [8]: 0.7319

TFWTNPQFKITLTEPD [SeqRBMlowT_689]
Chip Fluorescence (max) [11]: 1.036 | Chip Fluorescence (mean) [12]: -0.78

RNPGTALLELRGHSAS [SeqRBMlowT_6200]
Chip Fluorescence (max) [1]: 2.68 | Chip Fluorescence (mean) [2]: 1.087

RTLINPSVAFLYMGSR [SeqRBM_5357]
Chip Fluorescence (max) [11]: 1.016 | Chip Fluorescence (mean) [12]: -0.7287

GPQDIPEVVVSPPEDD [SeqSLC4A7_Austrofundulus_limnaeus]
Chip Fluorescence (max) [5]: 6.762 | Chip Fluorescence (mean) [6]: 1.072

TFWTNPQFRVKLEEPD [SeqRBMlowT_201]
Chip Fluorescence (max) [3]: 0.5145 | Chip Fluorescence (mean) [4]: -0.7212

STEIIATLFVQVANEY [Seqshuffled_9888]
Chip Fluorescence (max) [7]: 1.433 | Chip Fluorescence (mean) [8]: -0.5855

TFWTNPQYRITLEEVD [SeqRBMlowT_98]
Chip Fluorescence (max) [3]: 0.8765 | Chip Fluorescence (mean) [4]: 0.0532

ADEAAPEIVVSKPEHN [SeqRBMlowT_7698]
Chip Fluorescence (max) [9]: 0.05556 | Chip Fluorescence (mean) [10]: -1.148

FSMLIGMHEPHPNTTI [Seqrandom_9971]
Chip Fluorescence (max) [7]: 1.524 | Chip Fluorescence (mean) [8]: -0.1169

RQPGQALLTLRGHSKS [SeqRBMlowT_7741]
Chip Fluorescence (max) [1]: 2.813 | Chip Fluorescence (mean) [2]: 0.6175

STSSLPTFSFSSPLST [SeqRBMlowT_892]
Chip Fluorescence (max) [7]: 1.3512 | Chip Fluorescence (mean) [8]: -0.8669

THVEKVRFLIQPAGHP [Seqshuffled_9690]
Chip Fluorescence (max) [3]: 0.887 | Chip Fluorescence (mean) [4]: -0.1564

RQGAGPILVLEGHWDA [SeqRBM_4400]
Chip Fluorescence (max) [1]: 3.288 | Chip Fluorescence (mean) [2]: -1.788

PMMAVPSISSDVSNAP [SeqRBM_5566]
Chip Fluorescence (max) [7]: 1.398 | Chip Fluorescence (mean) [8]: 0.7603

SSRSSSRPARSPERKP [SeqRGA2_Fusarium_oxysporum]
Chip Fluorescence (max) [5]: 4.629 | Chip Fluorescence (mean) [6]: 0.8375

RQPGTFLLTLRGHKKQ [SeqRBMlowT_6149]
Chip Fluorescence (max) [3]: 0.9861 | Chip Fluorescence (mean) [4]: 0.123

ADQELSSFQPFYIEAS [Seqshuffled_9636]
Chip Fluorescence (max) [3]: 0.9604 | Chip Fluorescence (mean) [4]: 0.1044

TFWTNPQFRITLDSPD [SeqRBMlowT_5998]
Chip Fluorescence (max) [1]: 2.88 | Chip Fluorescence (mean) [2]: 0.5672

SRPLDEEGAMAPTLAN [SeqRIPOR2_Propithecus_coquereli]
Chip Fluorescence (max) [3]: 0.9511 | Chip Fluorescence (mean) [4]: 0.1118

ADEANPQITITPAELP [SeqRBMlowT_1252]
Chip Fluorescence (max) [9]: -0.527 | Chip Fluorescence (mean) [10]: -1.133

TFWTNPQFVVSLPEPD [SeqRBMlowT_3270]
Chip Fluorescence (max) [3]: 0.9379 | Chip Fluorescence (mean) [4]: -0.001001

SFWTNPQFKITLEEPD [SeqRBMlowT_6820]
Chip Fluorescence (max) [5]: 5.89 | Chip Fluorescence (mean) [6]: 1.37

ESSTTPGVVVHICEDD [SeqRBM_7485]
Chip Fluorescence (max) [5]: 8.839 | Chip Fluorescence (mean) [6]: 1.544

SSAAPPAINIDFAPTN [SeqRBMlowT_5045]
Chip Fluorescence (max) [9]: -0.1972 | Chip Fluorescence (mean) [10]: -1.194

STSSLPTFSFSSPQST [SeqRBMlowT_3930]
Chip Fluorescence (max) [9]: -0.1298 | Chip Fluorescence (mean) [10]: -1.588

TFWTNPQYTITLEEVD [SeqRBMlowT_678]
Chip Fluorescence (max) [1]: 2.849 | Chip Fluorescence (mean) [2]: 0.5944

VNLPIPAVQLADSGAY [SeqRBM_1417]
Chip Fluorescence (max) [1]: 2.788 | Chip Fluorescence (mean) [2]: 0.6718
